Laboratory results: the supplement of paper PMC11451515

How the values were obtained:
Conditions in all cases: 48 h
P12-Ichikawa [1] = test: AUC of viability dose-response curve (% viability x log10 dose units); higher = less sensitive
Procedure, shortened: (§1)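 Leukemia cells adapted to each medium (500 or 1000 cells/well, 1536-well plates) were exposed to library compounds in DMSO for 48 h at 37°C at 11 threefold doses, 47 μM to 0.79 nM. Luminescence by CellTiter-Glo One was normalised per plate to DMSO and cell-free wells, then fitted with a four-parameter log-logistic curve on log10 dose. Curves above full viability were scaled and quality-control failures removed before area under the curve was integrated by trapezoidal rule.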

SEM cells [2] = test: as above
Procedure, shortened: as §1

NOMO1 [3] = test: as above
Procedure, shortened: as §1

P12-Ichikawa [4] = test: cell viability relative to DMSO control; higher = less cytotoxic
Procedure, shortened: (§2)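 In 1536-well plates, 5 μl of leukemia cells were seeded per well: 500 cells/well for NOMO1 or SEM and 1000 cells/well for P12-Ichikawa. Each line had first been adapted for at least four passages in each medium. Library compounds in DMSO were pin-dosed at 11 threefold concentrations between 47 μM and 0.79 nM, and CellTiter-Glo One luminescence was read after 48 h at 37°C. Viability is a per-plate percentage relative to DMSO wells, with cell-free wells as background.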

SEM cells [5] = test: as above
Procedure, shortened: as §2

NOMO1 [6] = test: as above
Procedure, shortened: as §2

O=C(c1ccc(Nc2nccc(-c3cc4ccccc4s3)n2)cc1)N1CCC(N2CCCC2)CC1
AUC of viability dose-response curve
Conditions	NOMO1 [3]	P12-Ichikawa [1]	SEM cells [2]
HPLM + 10% dialyzed FBS	411	430	382
RPMI 5 mM glucose + 10% FBS	446	441	389
RPMI 5 mM glucose + 10% dialyzed FBS	432	425	394

cell viability [%]
Conditions	NOMO1 [6]	P12-Ichikawa [4]	SEM cells [5]
HPLM + 10% dialyzed FBS, 0.000781 µM	122	115	103
HPLM + 10% dialyzed FBS, 0.00234 µM	132	109	107
HPLM + 10% dialyzed FBS, 0.00702 µM	125	116	108
HPLM + 10% dialyzed FBS, 0.0211 µM	125	112	110
HPLM + 10% dialyzed FBS, 0.0632 µM	124	120	102
HPLM + 10% dialyzed FBS, 0.19 µM	114	107	104
HPLM + 10% dialyzed FBS, 0.569 µM	105	103	99.3
HPLM + 10% dialyzed FBS, 1.71 µM	95.3	98.8	82.4
HPLM + 10% dialyzed FBS, 5.12 µM	104	99.5	65.2
HPLM + 10% dialyzed FBS, 15.4 µM	41.8	67.7	10.8
HPLM + 10% dialyzed FBS, 46.1 µM	1.51	3.26	2.34
RPMI 5 mM glucose + 10% FBS, 0.000781 µM	113	117	–
RPMI 5 mM glucose + 10% FBS, 0.00234 µM	126	125	–
RPMI 5 mM glucose + 10% FBS, 0.00702 µM	107	119	–
RPMI 5 mM glucose + 10% FBS, 0.0211 µM	110	117	–
RPMI 5 mM glucose + 10% FBS, 0.0632 µM	106	114	–
RPMI 5 mM glucose + 10% FBS, 0.19 µM	119	107	–
RPMI 5 mM glucose + 10% FBS, 0.569 µM	118	112	–
RPMI 5 mM glucose + 10% FBS, 1.71 µM	101	112	–
RPMI 5 mM glucose + 10% FBS, 5.12 µM	96.2	105	–
RPMI 5 mM glucose + 10% FBS, 15.4 µM	91.3	82.9	–
RPMI 5 mM glucose + 10% FBS, 46.1 µM	2.67	6.91	–
RPMI 5 mM glucose + 10% dialyzed FBS, 0.000781 µM	122	113	105
RPMI 5 mM glucose + 10% dialyzed FBS, 0.00234 µM	129	119	120
RPMI 5 mM glucose + 10% dialyzed FBS, 0.00702 µM	115	115	98.2
RPMI 5 mM glucose + 10% dialyzed FBS, 0.0211 µM	114	119	118
RPMI 5 mM glucose + 10% dialyzed FBS, 0.0632 µM	124	123	106
RPMI 5 mM glucose + 10% dialyzed FBS, 0.19 µM	106	106	114
RPMI 5 mM glucose + 10% dialyzed FBS, 0.569 µM	120	113	108
RPMI 5 mM glucose + 10% dialyzed FBS, 1.71 µM	121	107	97.9
RPMI 5 mM glucose + 10% dialyzed FBS, 5.12 µM	95	101	69.3
RPMI 5 mM glucose + 10% dialyzed FBS, 15.4 µM	80.2	63.8	28.2
RPMI 5 mM glucose + 10% dialyzed FBS, 46.1 µM	2.88	7	2.16

Cc1cn(-c2cc(NC(=O)c3ccc(C)c(Nc4nccc(-c5cccnc5)n4)c3)cc(C(F)(F)F)c2)cn1
AUC of viability dose-response curve
Conditions	NOMO1 [3]	P12-Ichikawa [1]	SEM cells [2]
HPLM + 10% dialyzed FBS	436	328	377
RPMI 5 mM glucose + 10% FBS	407	340	345
RPMI 5 mM glucose + 10% dialyzed FBS	419	346	347

cell viability [%]
Conditions	NOMO1 [6]	P12-Ichikawa [4]	SEM cells [5]
HPLM + 10% dialyzed FBS, 0.000781 µM	100	102	83.5
HPLM + 10% dialyzed FBS, 0.00234 µM	122	101	92.7
HPLM + 10% dialyzed FBS, 0.00702 µM	123	108	97.1
HPLM + 10% dialyzed FBS, 0.0211 µM	135	109	107
HPLM + 10% dialyzed FBS, 0.0632 µM	130	110	107
HPLM + 10% dialyzed FBS, 0.19 µM	117	107	109
HPLM + 10% dialyzed FBS, 0.569 µM	103	106	95.2
HPLM + 10% dialyzed FBS, 1.71 µM	88.8	12	52.4
HPLM + 10% dialyzed FBS, 5.12 µM	95.3	13.1	40.9
HPLM + 10% dialyzed FBS, 15.4 µM	95.2	9.96	37.3
HPLM + 10% dialyzed FBS, 46.1 µM	114	10.8	35.4
RPMI 5 mM glucose + 10% FBS, 0.000781 µM	99.7	112	106
RPMI 5 mM glucose + 10% FBS, 0.00234 µM	111	111	120
RPMI 5 mM glucose + 10% FBS, 0.00702 µM	115	114	108
RPMI 5 mM glucose + 10% FBS, 0.0211 µM	127	117	124
RPMI 5 mM glucose + 10% FBS, 0.0632 µM	113	113	111
RPMI 5 mM glucose + 10% FBS, 0.19 µM	131	112	125
RPMI 5 mM glucose + 10% FBS, 0.569 µM	117	110	110
RPMI 5 mM glucose + 10% FBS, 1.71 µM	66.5	43.6	31.4
RPMI 5 mM glucose + 10% FBS, 5.12 µM	61.3	11.4	31.6
RPMI 5 mM glucose + 10% FBS, 15.4 µM	74.2	12.1	21.4
RPMI 5 mM glucose + 10% FBS, 46.1 µM	68.4	11	17.5
RPMI 5 mM glucose + 10% dialyzed FBS, 0.000781 µM	102	103	111
RPMI 5 mM glucose + 10% dialyzed FBS, 0.00234 µM	109	113	106
RPMI 5 mM glucose + 10% dialyzed FBS, 0.00702 µM	107	114	104
RPMI 5 mM glucose + 10% dialyzed FBS, 0.0211 µM	106	112	110
RPMI 5 mM glucose + 10% dialyzed FBS, 0.0632 µM	114	115	111
RPMI 5 mM glucose + 10% dialyzed FBS, 0.19 µM	114	113	98.9
RPMI 5 mM glucose + 10% dialyzed FBS, 0.569 µM	111	114	102
RPMI 5 mM glucose + 10% dialyzed FBS, 1.71 µM	86.8	23.9	26.9
RPMI 5 mM glucose + 10% dialyzed FBS, 5.12 µM	67.2	24.5	33.6
RPMI 5 mM glucose + 10% dialyzed FBS, 15.4 µM	66.3	26.7	21.5
RPMI 5 mM glucose + 10% dialyzed FBS, 46.1 µM	62.9	22.7	17.2

COC1=C2OC(=O)\C=C/C2=CC3=C1OC=C3
AUC of viability dose-response curve
Conditions	NOMO1 [3]	P12-Ichikawa [1]	SEM cells [2]
HPLM + 10% dialyzed FBS	465	447	459
RPMI 5 mM glucose + 10% FBS	451	449	458
RPMI 5 mM glucose + 10% dialyzed FBS	466	426	456

cell viability [%]
Conditions	NOMO1 [6]	P12-Ichikawa [4]	SEM cells [5]
HPLM + 10% dialyzed FBS, 0.000781 µM	117	118	121
HPLM + 10% dialyzed FBS, 0.00234 µM	116	113	117
HPLM + 10% dialyzed FBS, 0.00702 µM	120	115	129
HPLM + 10% dialyzed FBS, 0.0211 µM	116	116	126
HPLM + 10% dialyzed FBS, 0.0632 µM	116	112	124
HPLM + 10% dialyzed FBS, 0.19 µM	123	107	123
HPLM + 10% dialyzed FBS, 0.569 µM	107	108	121
HPLM + 10% dialyzed FBS, 1.71 µM	118	102	115
HPLM + 10% dialyzed FBS, 5.12 µM	109	99.7	116
HPLM + 10% dialyzed FBS, 15.4 µM	101	61.3	107
HPLM + 10% dialyzed FBS, 46.1 µM	116	84.6	93.4
RPMI 5 mM glucose + 10% FBS, 0.000781 µM	108	118	–
RPMI 5 mM glucose + 10% FBS, 0.00234 µM	115	117	–
RPMI 5 mM glucose + 10% FBS, 0.00702 µM	115	117	–
RPMI 5 mM glucose + 10% FBS, 0.0211 µM	117	111	–
RPMI 5 mM glucose + 10% FBS, 0.0632 µM	121	109	–
RPMI 5 mM glucose + 10% FBS, 0.19 µM	113	110	–
RPMI 5 mM glucose + 10% FBS, 0.569 µM	96.5	113	–
RPMI 5 mM glucose + 10% FBS, 1.71 µM	104	110	–
RPMI 5 mM glucose + 10% FBS, 5.12 µM	108	109	–
RPMI 5 mM glucose + 10% FBS, 15.4 µM	105	55.6	–
RPMI 5 mM glucose + 10% FBS, 46.1 µM	97.3	86.8	–
RPMI 5 mM glucose + 10% dialyzed FBS, 0.000781 µM	104	115	123
RPMI 5 mM glucose + 10% dialyzed FBS, 0.00234 µM	109	117	132
RPMI 5 mM glucose + 10% dialyzed FBS, 0.00702 µM	115	119	124
RPMI 5 mM glucose + 10% dialyzed FBS, 0.0211 µM	117	125	110
RPMI 5 mM glucose + 10% dialyzed FBS, 0.0632 µM	114	108	123
RPMI 5 mM glucose + 10% dialyzed FBS, 0.19 µM	113	109	133
RPMI 5 mM glucose + 10% dialyzed FBS, 0.569 µM	113	105	128
RPMI 5 mM glucose + 10% dialyzed FBS, 1.71 µM	108	100	109
RPMI 5 mM glucose + 10% dialyzed FBS, 5.12 µM	104	101	115
RPMI 5 mM glucose + 10% dialyzed FBS, 15.4 µM	101	60.2	108
RPMI 5 mM glucose + 10% dialyzed FBS, 46.1 µM	107	74.4	93.7
